According to ChEMBL document CHEMBL5052829, “Arf6 inhibitors and related methods” (2021):
Values belong to the compound of their own block, whether it stands above or below them. The source made the active and inactive calls. The rule behind the calls is not given here.

Experiments:
[1] = Solubility in water; type: physicochemical
[2] = Volume of distribution in Sprague-Dawley rats at 1.4 mg/kg, iv; type: ADME, organism-based; settings: rat, in vivo
[3] = Terminal half-life in Sprague-Dawley rats at 1.4 mg/kg, iv; type: ADME, organism-based; settings: rat, in vivo, read-out: beta t1/2 (converted)
[4] = Clearance in Sprague-Dawley rats at 1.4 mg/kg, iv; type: ADME, organism-based; settings: rat, in vivo
[5] = tested on: Mus musculus; assay: Antiinflammatory activity in mouse model of LPS-induced acute lung injury assessed as reduction in BALF protein at 5 mg/kg, ip administered immediately or 6 hrs after LPS stimulation; type: functional; set-up: scale not given: the % may be the effect or the level left
[6] = tested on: Mus musculus; assay: Antiinflammatory activity in mouse model of LPS-induced acute lung injury assessed as reduction in BALF protein at 64 mg/kg, iv; type: functional, organism-based
[7] = Toxicity in multidrug-resistant Pseudomonas aeruginosa infected mouse model of pneumonia assessed as improvement in animal survival at 64 mg/kg, sc administered once daily for 6 days; type: organism-based; settings: in vivo, 144 h, time 6 day
[8] = tested on: Mus musculus; assay: Antiinflammatory activity in mouse model of LPS-induced acute lung injury assessed as reduction in total cell count in BALF at 38 mg/kg, iv; type: functional, organism-based
[9] = tested on: Mus musculus; assay: Antiinflammatory activity in mouse model of LPS-induced acute lung injury assessed as reduction in BALF protein at 38 mg/kg, iv; type: functional, organism-based
[10] = Toxicity in multidrug-resistant Pseudomonas aeruginosa infected mouse model of pneumonia assessed as improvement in animal survival at 38 mg/kg, sc administered once daily for 6 days; type: organism-based; settings: in vivo, 144 h, time 6 day
[11] = tested on: Mus musculus; assay: Antiinflammatory activity in mouse model of LPS-induced acute lung injury assessed as reduction in total cell count in BALF at 64 mg/kg, iv; type: functional, organism-based

SMILES: Cc1ccc(-c2cc(=O)[nH]c3c(-c4ccc(Cl)cc4)c(Cc4ccccc4)nn23)c(OP(=O)(O)O)c1
solubility [1]: > 50 µM

Vd [2]: 0.383 L/kg
half-life [3]: 10.9 h
clearance [4]: 0.417 mL/min/kg
SMILES: NCCCC[C@H](N)C(=O)Oc1cc([N+](=O)[O-])ccc1-c1cc(=O)[nH]c2c(-c3ccc(Cl)cc3)c(Cc3ccccc3)nn12

SMILES: C[C@@H]1C[C@H]2[C@@H]3CCC4=CC(=O)C=C[C@]4(C)[C@@]3(F)[C@@H](O)C[C@]2(C)[C@@]1(O)C(=O)CO [DEXAMETHASONE]
Activity [5]: 37%

solubility [1]: < 1 µM
SMILES: Cc1ccc(-c2c[nH]c3c(-c4ccc(Cl)cc4)c(Cc4ccccc4)nn3c2=O)c(O)c1

SMILES: O=c1c(-c2ccc(F)cc2OP(=O)([O-])[O-])c[nH]c2c(-c3ccc(Cl)cc3)c(Cc3ccccc3)nn12.[Na+].[Na+]
solubility [1]: > 50 µM

SMILES: Cc1ccc(-c2c[nH]c3c(-c4ccc(Cl)cc4)c(Cc4ccccc4)nn3c2=O)c(OP(=O)([O-])[O-])c1.[Na+].[Na+]
Activity [6]: Active
Activity [7]: Non-Toxic
Activity [8]: Active
Activity [9]: Active
solubility [1]: > 50 µM
Activity [10]: Non-Toxic
Activity [11]: Active

SMILES: Cc1ccc(-c2cc(=O)[nH]c3c(-c4ccc(Cl)cc4)c(Cc4ccccc4)nn23)c(OP(=O)([O-])[O-])c1.[Na+].[Na+]
solubility [1]: > 50 µM
